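A five-concentration, 48-hour dose response in 96-well plates underlies each endpoint, interpolated linearly between surrounding concentrations. GI50 marks 50% less growth. TGI: total growth inhibition.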
Tests used:
Assay in all cases: NCI anticancer screen, dose series, 48 h
SF-295 CNS = tested on: SF-295 CNS
A549 NSCLC = tested on: A549 NSCLC
MDA-MB-435 = tested on: MDA-MB-435
KM12 colon = tested on: KM12 colon
HOP-62 NSCLC = tested on: HOP-62 NSCLC
EKVX NSCLC = tested on: EKVX NSCLC
OVCAR-8 ovarian = tested on: OVCAR-8 ovarian
OVCAR-4 ovarian = tested on: OVCAR-4 ovarian
UO-31 renal = tested on: UO-31 renal
NCI/ADR-RES ovarian = tested on: NCI/ADR-RES ovarian

SMILES	TGI (SF-295 CNS) [µM]	TGI (A549 NSCLC) [µM]	TGI (MDA-MB-435) [µM]	TGI (KM12 colon) [µM]	TGI (HOP-62 NSCLC) [µM]	TGI (EKVX NSCLC) [µM]	TGI (OVCAR-8 ovarian) [µM]	TGI (OVCAR-4 ovarian) [µM]	TGI (UO-31 renal) [µM]	TGI (NCI/ADR-RES ovarian) [µM]	GI50 (SF-295 CNS) [µM]	GI50 (A549 NSCLC) [µM]	GI50 (MDA-MB-435) [µM]	GI50 (KM12 colon) [µM]	GI50 (HOP-62 NSCLC) [µM]	GI50 (EKVX NSCLC) [µM]	GI50 (OVCAR-8 ovarian) [µM]	GI50 (OVCAR-4 ovarian) [µM]	GI50 (UO-31 renal) [µM]	GI50 (NCI/ADR-RES ovarian) [µM]
O=C[C@@H](CO)O[C@H](C=O)n1cnc2c(=O)[nH]cnc21	2230	2460	2300	1270	630	1320	2020	1150	1420	1810	–	–	–	–	–	–	–	–	–	–
COc1cc(CNc2oc(-c3ccccc3)c(-c3ccccc3)c2C#N)cc(CN2CCN(C)CC2)c1O	3.49	4.16	3.26	3.55	4.21	3.59	10.1	3.99	2.62	4.75	1.87	1.97	1.77	1.9	1.92	1.81	2.56	1.86	1.23	2.1
CC/C(=C/c1ccc(OC)cc1OC)[N+](=O)[O-]	21.7	23.4	5.7	6.75	7.14	28.9	11.6	17.3	3.09	12.6	9.88	8.37	1.97	2.41	2.38	15.4	3.5	4.66	1.57	3.17
N#Cc1cccc(N2C(=O)C3C4C=CC(C3C2=O)C2C(=O)N(c3cccc(C#N)c3)C(=O)C42)c1 (stereo not drawn)	36.7	> 63.1	> 100	> 56.2	38.1	> 100	> 63.1	> 63.1	61.8	> 100	–	–	–	–	–	–	–	–	–	–
COc1ccc(-c2cc(=O)c3c(O)c(OC)c(OC)c(OC)c3o2)cc1	> 100	> 100	> 100	44.4	> 100	> 100	> 100	> 100	> 100	> 100	–	–	–	–	–	–	–	–	–	–
Nc1cccc2c1C(=O)c1cccc(NC(=O)c3ccccc3)c1C2=O	1.35	4.66	0.414	> 100	21.5	4.52	> 38.8	> 100	> 100	–	0.166	0.677	0.0364	0.374	0.535	0.421	0.784	5.07	0.474	0.212
CCOC(=O)CN1C(=O)c2cc([N+](=O)[O-])cc3cc([N+](=O)[O-])cc(c23)C1=O	> 100	> 100	> 100	> 100	> 100	> 100	> 100	> 100	> 100	> 100	–	–	–	–	–	–	–	–	–	–
Cc1cc(O)c(-c2ccc([C@@H](C)CN(C)C)cc2)c2c1[nH]c(=O)c1sccc12	6.07	14.6	15.2	6.71	5.57	6.23	34.9	10.6	1.88	24.1	0.73	0.647	0.981	0.482	0.886	0.585	0.983	0.769	0.287	2.72
Cc1cccc2c1[nH]c(=O)c1c3ccccc3cn21	25.1	> 100	11.6	22.8	15.2	44.6	> 100	> 100	> 100	34.8	2.64	4.98	3.14	3.38	3.58	5.61	3.57	6.73	5.66	12.1
CC(C)c1ccc(NC(=O)Cc2ccc(Nc3ncnc4cc(-c5cnn(CCN(C)C)c5)ccc34)cc2)cc1	> 10	4.15	> 10	1.39	> 10	9.23	3.54	3.05	> 10	> 10	2.47	1.2	2.34	0.0641	> 10	2.42	1.29	1.51	3.02	> 10
CC[C@H](C)[C@H](NC(=O)c1cccn1C)C(=O)N(C)[C@H](C[C@@H](OC(C)=O)c1nc(C(=O)N[C@@H](Cc2ccccc2)C[C@H](C)C(=O)OC)cs1)C(C)C	–	> 33.3	0.168	> 33.3	> 33.3	> 33.3	> 33.3	> 33.3	> 33.3	> 33.3	0.0744	0.661	0.0348	0.106	0.32	0.543	0.354	0.68	1.3	1.2
COc1cc(NCCCCCN=C(N)NC(N)=NC(C)C)c2ncccc2c1	29.2	26.3	14.7	3.28	19.1	18.5	17.2	0.633	> 100	> 100	13	11.6	3.61	1.07	5.14	2.28	3.08	0.0363	27.1	> 100
CC(C)(C)OC(=O)Nc1ccc2c(c1)C(NC(=O)Nc1cccc(C#N)c1)CC(C)(C)O2 (stereo not drawn)	> 37.1	> 100	15.2	> 100	> 100	> 69.6	55.7	> 100	> 100	> 64.6	1.94	2.9	1.44	3.39	5	0.691	3.13	1.18	3.36	2.78
COc1cc2c3c(n(CCCNCCCN)c(=O)c2cc1OC)-c1cc2c(cc1C3=O)OCO2	16.7	29.6	13.5	16.9	13	19.4	13	16.7	38.5	98.7	3.69	6.11	2.53	3.51	1.6	5.27	1.27	2.83	15.4	22.9
